Data published in ChEMBL document CHEMBL4732077, “Potent and orally active purine-based fetal hemoglobin inducers for treating β-thalassemia and sickle cell disease” (Eur J Med Chem, 2021).
Calls of active or inactive are those of the source. No cut-off for these calls is given here.

How the values were obtained:
Erythrocyte [1] = assay: Induction of gamma-globin gene expression in human erythrocytes at 147 uM after 3 days by RT-PCR analysis; format: functional, cell-based; conditions: time 3.0 day
Mus musculus [2] = assay: Antianemic effect in sickle cell disease mouse B6 model assessed as WBC level at 100 mg/kg, ip once daily, five days a week for 4 weeks (reference value: 34.15 +/- 5.85 K/uL); format: functional
[3] = Cytotoxicity against human erythrocytes assessed as cell viability after 3 days alamar blue assay; format: cell-based, Erythrocyte; conditions: time 3 day
Mus musculus [4] = assay: Antianemic effect in sickle cell disease mouse B6 model assessed as F-cell level at 100 mg/kg, ip once daily, five days a week for 4 weeks (reference value: 1.63 +/- 0.11 %); format: functional
[5] = Induction of gamma-globin gene expression in human erythrocytes at 100 uM after 3 days by RT-PCR analysis relative to control; format: functional, Erythrocyte; conditions: time 3 day
Mus musculus [6] = assay: Antianemic effect in sickle cell disease mouse B6 model assessed as reticulocytes level at 100 mg/kg, ip once daily, five days a week for 4 weeks (reference value: 57.34 +/- 3.67 %); format: functional
Mus musculus [7] = assay: Antianemic effect in sickle cell disease mouse B6 model assessed as RBC level at 100 mg/kg, ip once daily, five days a week for 4 weeks (reference value: 7.23 +/- 0.75 M/uL); format: functional
Mus musculus [8] = assay: Antianemic effect in sickle cell disease mouse B6 model assessed as hemoglobin level at 100 mg/kg, ip once daily, five days a week for 4 weeks (reference value: 7.46 +/- 0.7 g/dl); format: functional
Mus musculus [9] = assay: Antianemic effect in sickle cell disease mouse B6 model assessed as sickle cell level at 100 mg/kg, ip once daily, five days a week for 4 weeks (reference value: 16.78 +/- 1.9 %); format: functional
Erythrocyte [10] = assay: Induction of beta-globin gene expression in human erythrocytes at 147 uM after 3 days by RT-PCR analysis; format: functional, cell-based; conditions: time 3.0 day
Mus musculus [11] = assay: Antianemic effect in sickle cell disease mouse B6 model assessed as fetal hemoglobin level at 100 mg/kg, ip once daily, five days a week for 4 weeks (reference value: 0.2 +/- 0.02 %); format: functional
Mus musculus [12] = assay: Antianemic effect in sickle cell disease mouse B6 model assessed as neutrophils level at 100 mg/kg, ip once daily, five days a week for 4 weeks (reference value: 13.39 +/- 4.65 K/uL); format: functional
Mus musculus [13] = assay: Antianemic effect in sickle cell disease mouse B6 model assessed as F-cell level at 100 mg/kg, po twice daily, five days a week for 4 weeks (reference value: 1.63 +/- 0.11 %); format: functional
Erythrocyte [14] = assay: Induction of gamma-globin gene expression in human erythrocytes at 0.5 to 1 uM after 3 days Western blot analysis; format: functional, cell-based; conditions: dose 0.5-1 µM, time 3.0 day
[15] = Cmax in Sprague-Dawley rat at 20 mg/kg, po measured upto 24 hrs by LC-MS/MS analysis; format: ADME, organism-based; set-up: route oral, dose 20 mg/kg, time <=24; conditions: in vivo
Erythrocyte [16] = assay: Induction of gamma-globin gene expression in human erythrocytes after 3 days by RT-PCR analysis; format: functional, cell-based; conditions: dose 0.06-2 µM, time 3.0 day
Mus musculus [17] = assay: Antianemic effect in sickle cell disease mouse B6 model assessed as hemoglobin level at 100 mg/kg, po twice daily, five days a week for 4 weeks (reference value: 7.46 +/- 0.7 g/dl); format: functional
Erythrocyte [18] = assay: Induction of beta-globin gene expression in human erythrocytes at 0.5 uM after 3 days by RT-PCR analysis; format: functional, cell-based; conditions: time 3.0 day
[19] = Induction of gamma-globin gene expression in human erythrocytes at 1 uM after 3 days by RT-PCR analysis relative to control; format: functional, Erythrocyte; conditions: time 3 day
Mus musculus [20] = assay: Antianemic effect in sickle cell disease mouse B6 model assessed as F-cell level at 50 mg/kg, po twice daily, five days a week for 4 weeks (reference value: 1.63 +/- 0.11 %); format: functional
Mus musculus [21] = assay: Antianemic effect in sickle cell disease mouse B6 model assessed as fetal hemoglobin level at 50 mg/kg, po twice daily, five days a week for 4 weeks (reference value: 0.2 +/- 0.02 %); format: functional
[22] = Induction of GATA1 gene expression in human erythrocyte at 1 uM after 3 days by RT-PCR analysis relative to control; format: functional; conditions: time 3 day
[23] = AUC (0 to infinity) in Sprague-Dawley rat at 20 mg/kg, po measured upto 24 hrs by LC-MS/MS analysis; format: ADME, organism-based; set-up: route oral, dose 20 mg/kg, time <=24; conditions: in vivo
[24] = Volume of distribution at steady state in Sprague-Dawley rat at 5 mg/kg, iv measured upto 24 hrs by LC-MS/MS analysis; format: ADME, organism-based; conditions: in vivo, read-out: Vdss
[25] = Induction of CPOX gene expression in human erythrocyte at 0.5 uM after 3 days by RT-PCR analysis relative to control; format: functional; conditions: time 3 day
[26] = Induction of GATA1 gene expression in human erythrocyte at 0.5 uM after 3 days by RT-PCR analysis relative to control; format: functional; conditions: time 3 day
Erythrocyte [27] = assay: Downregulation of […] expression in human erythrocyte at 1 uM after 3 days by Western blot analysis; format: functional, tissue-based; conditions: time 3.0 day
Mus musculus [28] = assay: Antianemic effect in sickle cell disease mouse B6 model assessed as WBC level at 50 mg/kg, po twice daily, five days a week for 4 weeks (reference value: 34.15 +/- 5.85 K/uL); format: functional
[29] = Water solubility of compound at pH 7.4 after 24 hrs by LC/MS analysis; format: physicochemical; conditions: buffer, pH 7.4, 24 h
Mus musculus [30] = assay: Antianemic effect in sickle cell disease mouse B6 model assessed as neutrophils level at 50 mg/kg, po twice daily, five days a week for 4 weeks (reference value: 13.39 +/- 4.65 K/uL); format: functional
Mus musculus [31] = assay: Antianemic effect in sickle cell disease mouse B6 model assessed as WBC level at 100 mg/kg, po twice daily, five days a week for 4 weeks (reference value: 34.15 +/- 5.85 K/uL); format: functional
Erythrocyte [32] = assay: Cytotoxicity against human erythrocytes assessed as cell viability at 4 uM after 3 days alamar blue assay; format: cell-based; conditions: 72 h, time 3 day
Mus musculus [33] = assay: Antianemic effect in sickle cell disease mouse B6 model assessed as reticulocytes level at 50 mg/kg, po twice daily, five days a week for 4 weeks (reference value: 57.34 +/- 3.67 %); format: functional
[34] = Induction of NFE2L2 gene expression in human erythrocyte at 1 uM after 3 days by RT-PCR analysis relative to control; format: functional; conditions: time 3 day
Mus musculus [35] = assay: Antianemic effect in sickle cell disease mouse B6 model assessed as sickle cell level at 50 mg/kg, po twice daily, five days a week for 4 weeks (reference value: 16.78 +/- 1.9 %); format: functional
Mus musculus [36] = assay: Antianemic effect in sickle cell disease mouse B6 model assessed as RBC level at 50 mg/kg, po twice daily, five days a week for 4 weeks (reference value: 7.23 +/- 0.75 M/uL); format: functional
[37] = biological target: Histone deacetylase (Homo sapiens) (UniProt Q13547+O15379+Q9UBN7+Q92769+Q9UQL6+Q8WUI4+Q9BY41+Q96DB2+P56524+Q9UKV0+Q969S8); assay: Inhibition of HDAC in human erythrocyte cells assessed as increase in acetylation of histone H4 at 0.5 to 1 uM after 3 days by Western blot analysis; format: cell-based; conditions: dose 0.5-1 µM, time 3.0 day
[38] = AUC (0 to infinity) in Sprague-Dawley rat at 5 mg/kg, iv measured upto 24 hrs by LC-MS/MS analysis; format: ADME, organism-based; set-up: route intravenous, dose 5 mg/kg, time <=24; conditions: in vivo
[39] = Half life in Sprague-Dawley rat at 5 mg/kg, iv measured upto 24 hrs by LC-MS/MS analysis; format: ADME, organism-based; conditions: in vivo
Mus musculus [40] = assay: Antianemic effect in sickle cell disease mouse B6 model assessed as RBC level at 100 mg/kg, po twice daily, five days a week for 4 weeks (reference value: 7.23 +/- 0.75 M/uL); format: functional
Mus musculus [41] = assay: Antianemic effect in sickle cell disease mouse B6 model assessed as reticulocytes level at 100 mg/kg, po twice daily, five days a week for 4 weeks (reference value: 57.34 +/- 3.67 %); format: functional
Erythrocyte [42] = assay: Cytotoxicity against human erythrocytes assessed as cell viability at 1 uM after 3 days alamar blue assay; format: cell-based; conditions: 72 h, time 3 day
[43] = Downregulation of c-MYB gene expression in human erythrocyte at 1 uM after 3 days by RT-PCR analysis relative to control; format: functional; conditions: time 3 day
[44] = Half life in Sprague-Dawley rat at 20 mg/kg, po measured upto 24 hrs by LC-MS/MS analysis; format: ADME, organism-based; conditions: in vivo
Mus musculus [45] = assay: Antianemic effect in sickle cell disease mouse B6 model assessed as fetal hemoglobin level at 100 mg/kg, po twice daily, five days a week for 4 weeks (reference value: 0.2 +/- 0.02 %); format: functional
[46] = Induction of CPOX gene expression in human erythrocyte at 1 uM after 3 days by RT-PCR analysis relative to control; format: functional; conditions: time 3 day
Mus musculus [47] = assay: Antianemic effect in sickle cell disease mouse B6 model assessed as sickle cell level at 100 mg/kg, po twice daily, five days a week for 4 weeks (reference value: 16.78 +/- 1.9 %); format: functional
[48] = Downregulation of c-MYB gene expression in human erythrocyte at 0.5 uM after 3 days by RT-PCR analysis relative to control; format: functional; conditions: time 3 day
[49] = Clearance in Sprague-Dawley rat at 5 mg/kg, iv measured upto 24 hrs by LC-MS/MS analysis; format: ADME, organism-based; conditions: in vivo
[50] = Cytotoxicity against human erythrocytes assessed as cell viability at 2 uM after 3 days alamar blue assay relative to control; format: cell-based, Erythrocyte; conditions: time 3 day, read-out: Activity
Erythrocyte [51] = assay: Induction of gamma-globin gene expression in human erythrocytes at 0.5 uM after 3 days by RT-PCR analysis; format: functional, cell-based; conditions: time 3.0 day
[52] = Induction of gamma-globin gene expression in human HU-resistant primary erythrocytes at 0.5 uM after 3 days by RT-PCR analysis relative to control; format: functional, Erythrocyte; conditions: time 3 day
[53] = Oral bioavailability in Sprague-Dawley rat at 20 mg/kg measured upto 24 hrs by LC-MS/MS analysis; format: ADME, organism-based; conditions: in vivo
[54] = Induction of gamma-globin gene expression in human erythrocytes at 2 uM after 3 days by RT-PCR analysis relative to control; format: functional, Erythrocyte; conditions: time 3 day
[55] = Induction of NFE2L2 gene expression in human erythrocyte at 0.5 uM after 3 days by RT-PCR analysis relative to control; format: functional; conditions: time 3 day
Mus musculus [56] = assay: Antianemic effect in sickle cell disease mouse B6 model assessed as hemoglobin level at 50 mg/kg, po twice daily, five days a week for 4 weeks (reference value: 7.46 +/- 0.7 g/dl); format: functional
Mus musculus [57] = assay: Antianemic effect in sickle cell disease mouse B6 model assessed as neutrophils level at 100 mg/kg, po twice daily, five days a week for 4 weeks (reference value: 13.39 +/- 4.65 K/uL); format: functional

With `NC(=O)NO` [HYDROXYUREA] the Activity (Erythrocyte [1]) was “Active”, the Activity (Mus musculus [2]) was 23.02 K/uL and the CC50 at 72 h [3] was 147 µM. The Activity (Mus musculus [4]) was 1.3%, the “fold change (FC)” value [5] was 2.5 and the Activity (Mus musculus [6]) was 50.92%. For the same compound, the Activity (Mus musculus [7]) was 6.34 M/uL, the Activity (Mus musculus [8]) was 6.7 g/dL and the Activity (Mus musculus [9]) was 14.7%. For the same compound, the Activity (Erythrocyte [10]) was “Active”, the Activity (Mus musculus [11]) was 0.23% and the Activity (Mus musculus [12]) was 9.75 K/uL.
For `CCN1CCN(c2nc(Nc3cccc(NC(=O)C#Cc4ccc(C)cc4)c3)c3ncn(CC)c3n2)CC1.Cl.Cl`, the Activity (Mus musculus [13]) was 2.42%, the Activity (Erythrocyte [14]) was “Active” and the Cmax [15] was 2730 ng/mL. For the same compound, the Activity (Erythrocyte [16]) was “Dose-dependent effect”, the Activity (Mus musculus [17]) was 8.05 g/dL and the Activity (Erythrocyte [18]) was “inactive”. For the same compound, the “fold change (FC)” value [19] was 3.8, the Activity (Mus musculus [20]) was 2.15% and the Activity (Mus musculus [21]) was 0.28%. The “fold change (FC)” value [22] was 2.3, the AUC(0-inf) [23] was 9000 ng·h/mL and the Vd [24] was 0.3 L/kg. The “fold change (FC)” value [25] was 1.8, the “fold change (FC)” value [26] was 1.6 and the Activity (Erythrocyte [27]) was “Active”. The Activity (Mus musculus [28]) was 35.85 K/uL, the solubility [29] was 3.38 µg/mL and the Activity (Mus musculus [30]) was 15.05 K/uL. For the same compound, the Activity (Mus musculus [31]) was 44.12 K/uL, the Activity (Erythrocyte [32]) was “Toxic” and the Activity (Mus musculus [33]) was 58.98%. For the same compound, the “fold change (FC)” value [34] was 2.3, the Activity (Mus musculus [35]) was 10% and the Activity (Mus musculus [36]) was 7.78 M/uL. For the same compound, the inhibition [37] was “inactive”, the AUC(0-inf) [38] was 8860 ng·h/mL and the half-life [39] was 7.2 h. For the same compound, the Activity (Mus musculus [40]) was 8.05 M/uL, the Activity (Mus musculus [41]) was 54.66% and the Activity (Erythrocyte [42]) was “Non-Toxic”. For the same compound, the “fold change (FC)” value [43] was 0.6, the half-life [44] was 3.8 h and the Activity (Mus musculus [45]) was 0.3%. The “fold change (FC)” value [46] was 2.2, the Activity (Mus musculus [47]) was 8.8% and the “fold change (FC)” value [48] was 0.7. The clearance [49] was 8.2 mL/min/kg, the viability at 72 h, 2 µM [50] was 72% and the Activity (Erythrocyte [51]) was “Active”. The “fold change (FC)” value [52] was 2, the bioavailability [53] was 25% and the “fold change (FC)” value [54] was 4.8. The “fold change (FC)” value [55] was 1.7, the Activity (Mus musculus [56]) was 8.15 g/dL and the Activity (Mus musculus [57]) was 15.64 K/uL.
